Patent US20200289456A1, “METHODS FOR INHIBITING TUMORS AND DRUG RESISTANCE” (SEQUOIA PHARMACEUTICALS, INC., priority 2015, published 2020)

Tested on: tumors expressing high levels of CYP3A4
Assay: Combination of Docataxel and an ICI in patients (21 day treatment cycle)
Format: in vivo
Experimental: The compound of formula IA (150 mg po qd) is administered to patients for the first 3 days of a 21 day treatment cycle. Escalating doses of Docataxel are administered IV beginning on day 4. Docataxel is dose-escalated at 15, 25, 40, and 50 mg/m^2, where the standard dose is 75 mg/m^2.

CCCCCCN(CCCN(CC(C)C)S(=O)(=O)c1ccc2occc2c1)C(=O)OC(C)(C)C [IA]
cancer cell kill in tumors expressing high levels of CYP3A4 (IA 150 mg po qd days 1-3, Docataxel IV from day 4): improves cancer cell kill | toxicity of Docataxel (IA 150 mg po qd days 1-3, lower dose of docataxel and lower Cmax while maintaining AUC): diminishes toxicity | variability in AUC and drug response of Docataxel (IA 150 mg po qd days 1-3 of 21 day cycle, Docataxel IV from day 4, 15-50 mg/m^2): decreases variability in AUC and drug response
